Source: patent publication US11512053B2, “Arginine methyltransferase inhibitors and uses thereof” (priority 2013, dated 2022)

Target: T1, human CARM1 (PRMT4) (Flag- and His-tagged) (Homo sapiens, UniProt Q86X55)
T1 construct: Flag-CARM1-His; made in house; host or cells: HEK 293F cells (BacMam baculovirus)
T1 sequence (Q86X55 1-585 isoform Q86X55-1): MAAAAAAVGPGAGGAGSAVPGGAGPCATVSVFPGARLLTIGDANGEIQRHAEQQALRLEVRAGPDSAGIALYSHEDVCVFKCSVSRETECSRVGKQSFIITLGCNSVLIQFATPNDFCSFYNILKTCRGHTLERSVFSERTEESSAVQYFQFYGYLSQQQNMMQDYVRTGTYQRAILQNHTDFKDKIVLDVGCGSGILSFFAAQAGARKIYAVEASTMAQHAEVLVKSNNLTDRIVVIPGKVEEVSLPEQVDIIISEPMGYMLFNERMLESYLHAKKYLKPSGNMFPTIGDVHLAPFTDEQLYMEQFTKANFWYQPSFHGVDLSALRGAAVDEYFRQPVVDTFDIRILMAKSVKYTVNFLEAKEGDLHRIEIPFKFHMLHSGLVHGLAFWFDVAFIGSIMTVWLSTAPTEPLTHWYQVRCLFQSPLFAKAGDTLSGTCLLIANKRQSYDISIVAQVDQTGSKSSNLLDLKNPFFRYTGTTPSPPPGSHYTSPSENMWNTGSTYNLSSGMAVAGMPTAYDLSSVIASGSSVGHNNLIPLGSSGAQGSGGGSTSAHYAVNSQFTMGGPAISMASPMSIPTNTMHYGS
Test: CARM1 Biochemical Assay (3H-SAM Flashplate, peptide substrate)
Details: single experiment or average of multiple experiments
Text: General Materials. S-adenosylmethionine (SAM), S-adenosylhomocysteine (SAH), bicine, Tween20, dimethylsulfoxide (DMSO), bovine skin gelatin (BSG), sodium butyrate and Tris(2-carboxyethyl)phosphine hydrochloride solution (TCEP) were purchased from Sigma-Aldrich at the highest level of purity possible. ^3H-SAM was purchase from American Radiolabeled Chemicals with a specific activity of 80 Ci/mmol. 384-well streptavidin Flashplates were purchased from PerkinElmer.
Substrates. Peptide representative of human histone H3 residues 16-30 was synthesized with an N-terminal linker-affinity tag motif and a C-terminal amide cap by 21st Century Biochemicals. The peptide was purified by high-performance liquid chromatography (HPLC) to greater than 95% purity and confirmed by liquid chromatography mass spectrometry (LC-MS). The sequence was Biot-Ahx-[…]-amide and contained a monomethylated arginine at position 26 (SEQ ID NO.:14).
Molecular Biology: Human CARM1 (PRMT4) (NM_199141.1) transcript clone was amplified from an HEK 293 cDNA library, incorporating a flanking 5′ sequence encoding a FLAG tag ([…]) (SEQ ID NO.:6) fused directly to Ala 2 of CARM1 and 3′ sequence encoding a hexa His sequence ([…]) (SEQ ID NO.:15) fused directly to Ser 608. The gene sequence encoding isoform1 containing a deletion of amino acids 539-561 was amplified subsequently and subcloned into pFastBacMam (Viva Biotech).
Protein Expression. Recombinant baculovirus were generated according to Bac-to-Bac kit instructions (Life Technologies). […] Infections were carried out at 37° C. for 48 hours, harvested by centrifugation, and stored at −80° C. for purification.
Protein Purification. […] Column was washed with 500 mM NaCl in buffer A and Flag-CARM1-His was eluted with 200 ug/ml FLAG peptide in buffer A. Pooled fractions were dialyzed in 20 mM Tris, 150 mM NaCl, 5% glycerol and 1 mM DTT, pH 7.8. The purity of recovered protein was 94.
General Procedure for CARM1 Enzyme Assays on Peptide Substrates. The assays were all performed in a buffer consisting of 20 mM Bicine (pH=7.6), 1 mM TCEP, 0.005% BSG, and 0.002% Tween 20, prepared on the day of use. Compounds in 100% DMSO (1 ul) were spotted into a polypropylene 384-well V-bottom plates (Greiner) using a Platemate Plus outfitted with a 384-channel head (Thermo Scientific). DMSO (1 ul) was added to Columns 11, 12, 23, 24, rows A-H for the maximum signal control and 1 ul of SAH, a known product and inhibitor of CARM1, was added to columns 11, 12, 23, 24, rows I-P for the minimum signal control. A cocktail (40 ul) containing the CARM1 enzyme was added by Multidrop Combi (Thermo-Fisher). The compounds were allowed to incubate with CARM1 for 30 min at room temperature, then a cocktail (10 ul) containing ^3H-SAM and peptide was added to initiate the reaction (final volume=51 ul). The final concentrations of the components were as follows: CARM1 was 0.25 nM, ^3H-SAM was 30 nM, peptide was 250 nM, SAH in the minimum signal control wells was 1 mM, and the DMSO concentration was 2%. The assays were stopped by the addition of non-radiolabeled SAM (10 ul) to a final concentration of 300 uM, which dilutes the ^3H-SAM to a level where its incorporation into the peptide substrate is no longer detectable. 50 ul of the reaction in the 384-well polypropylene plate was then transferred to a 384-well Flashplate and the biotinylated peptides were allowed to bind to the streptavidin surface for at least 1 hour before being washed once with 0.1% Tween20 in a Biotek ELx405 plate washer. The plates were then read in a PerkinElmer TopCount plate reader to measure the quantity of ^3H-labeled peptide bound to the Flashplate surface, measured as disintegrations per minute (dpm) or alternatively, referred to as counts per minute (cpm).
Where dpm=disintegrations per minute, cmpd=signal in assay well, and min and max are the respective minimum and maximum signal controls. […]

CNCCN(C)Cc1c[nH]nc1C#Cc1ccccc1 [Compound 3]
IC50: 1230 nM
